The source of these data is patent EP0306846A2, “Synergistic combination comprising a phosphodiesterase inhibitor and a thromboxane-A2 antagonist, and its use or preparation” (Dr. Karl Thomae GmbH, priority 1987, dated 1989).

The conditions of assay [1]: in combination with Dipyridamol; J. Clin. Invest. 75, 1591-1599 (1985); cited from earlier work.
The subject of assay [2] is Plättchenaggregation im Gesamtblut. Put plainly: collagen-induced platelet aggregation in pooled rat whole blood, substances added in vitro. Type of assay: cell-based, Ratten. To be noted: collagen 7 µg/ml, read-out: % Hemmung. The method, then:
Ratten mit einem durchschnittlichen Körpergewicht von 250 bis 300 g wurden mit 60 mg/kg Pentobarbital narkotisiert. Aus der abdominalen Arterie wurde 4,5 ml Blut entnommen und in 0,5 ml Zitrat (3,8 %) gegeben. Das Blut von 3 Ratten wurde jeweils gepoolt und Proben hiervon, die Lösungsmittel, die Einzelsubstanzen oder die zu untersuchende Kombination enthielten, wurden 10 Minuten lang rotiert. Von diesen Proben wurden jeweils 200 µl in Aggregometer-Küvetten gegeben und 5 Minuten lang bei 37°C gerührt. Anschließend wurden 10 µl Collagenlösung (Endkonzentration: 7 µg/ml) zugegeben und zu verschiedenen Zeiten jeweils 10 µl Blut entnommen, welches anschließend mit Formaldehyd fixiert wurde. In diesen Proben wurden die nicht aggregierten Plättchen mit einem Ultra-Flo 100 (Becton-Dickinson) bestimmt. Die nachfolgende Tabelle enthält die gefundenen Werte: […]

Assay [3] shares this test system. The assay is described as follows: collagen-induced platelet aggregation in whole blood of rats after administration of the substances (ex vivo). More on the design: species or system Ratten. Particulars: rat, versus vehicle controls. The method, then: Ratten mit einem durchschnittlichen Körpergewicht von 250 bis 300 g wurden mit 60 mg/kg Pentobarbital narkotisiert. Aus der abdominalen Arterie wurde 4,5 ml Blut entnommen und in 0,5 ml Zitrat (3,8 %) gegeben. Das Blut von 3 Ratten wurde jeweils gepoolt und Proben hiervon, die Lösungsmittel, die Einzelsubstanzen oder die zu untersuchende Kombination enthielten, wurden 10 Minuten lang rotiert. Von diesen Proben wurden jeweils 200 µl in Aggregometer-Küvetten gegeben und 5 Minuten lang bei 37°C gerührt. Anschließend wurden 10 µl Collagenlösung (Endkonzentration: 7 µg/ml) zugegeben und zu verschiedenen Zeiten jeweils 10 µl Blut entnommen, welches anschließend mit Formaldehyd fixiert wurde. In diesen Proben wurden die nicht aggregierten Plättchen mit einem Ultra-Flo 100 (Becton-Dickinson) bestimmt. Die nachfolgende Tabelle enthält die gefundenen Werte:
Desweiteren wurde die synergistische Wirkung auf die Plättchenaggregation im Gesamtblut für die Kombination, bestehen aus Pimobendan (Substanz C) und Substanz B in Vergleich zu den Einzelverbindungen wie folgt untersucht: Ratten mit einem durchschnittlichen Körpergewicht von 250 bis 300 g Körpergewicht wurden 5 mg/kg Substanz C und 0,5 mg/kg Substanz B oder die Kombination im Vergleich zu Kontrollen, welche nur das Vehikel appliziert bekamen, gegeben. […]

As to `O=C(O)c1ccc(OCCn2ccnc2)cc1` [Dazoxiben, 4-[2-(1H-Imidazol-1-yl)-ethoxy]benzoesäure], the “Einfluß auf die antithrombotische Wirkung des PDE-Hemmers” value in assay [1] is “keinen verbessernden Einfluß”. Regarding `CCOc1nc(N2CCNCC2)nc(N2CC[S+]([O-])CC2)c1[N+](=O)[O-]` [Substanz A, 6-Äthoxy-5-nitro-4-(1-oxidothiomorpholino)-2-piperazino-pyrimidin], the inhibition at 0.03 µM in assay [2] (0,03 µMol/l) was 4%. As for `O=C(O)CCCc1ccc2c(c1)CC(NS(=O)(=O)c1ccc(Cl)cc1)C2` (stereo not drawn) [Substanz B, 4-[2-p-Chlorbenzolsulfonamido-indan-5-yl]-buttersäure], in assay [3] (dose 0,5 mg/kg), the “% Hemmung” value was 59%. The inhibition at 0.1 µM in assay [2] (0,10 µMol/l) stood at 3%. For the same compound, in assay [2] (0,30 µMol/l), the inhibition at 0.3 µM turned out to be 19%. With `COc1ccc(-c2nc3ccc(C4=NNC(=O)CC4C)cc3[nH]2)cc1` (stereo not drawn) [Substanz C, 2-(4-Methoxy-phenyl)-5(6)-(5-methyl-3-oxo-4,5-dihydro-2H-6-pyridazinyl)-benzimidazol, reference compound], the “% Hemmung” value in assay [3] (dose 5,0 mg/kg) is reported as -1%.
